Results taken from US20230134376A1, “METHOD FOR QUANTITATIVE IMAGING OF THE METABOLIC STATUS OF A LESION” (priority 2020, published 2023).

Columns and labels:
NADH/NAD+ ratio = assay: FLIM phasor quantification of NADH/NAD+ ratio (anaerobic glycolysis) in incisional skin wound; assay type: in vivo, mice (C57Bl6/J); details: for NADH/NAD+ ratio in perilesional area vs untreated condition (in words): comparison between first 10 values of each condition, t-test; for line slope of linear regression of NADH/NAD+ ratio vs untreated (in words): deviation between slopes test; for slope of gradient of NADH/NAD+ ratio vs distance from wound: untreated −0.267±0.06
Excerpt: FIG. 2: Measurement of anaerobic glycolysis in wound by FLIM quantification of NADH/NAD^+ ratio. Phasor analysis of free and bound NADH fluorescence allows a quantification of their relative increase. A, map of a gradient of NADH/NAD+ ratio (grey). Wound margin is highlighted with a dashed line. All scale bars 100 μm. B, phasor analysis of FLIM NADH fluorescence. NADH region of the phasor plot was divided in five sub-regions along the major axis and each is associated with an intensity value (0-20, 20-40, 40-60, 60-80, 80-100). […] D, NADH/NAD^+ ratio percentage as a function of distance from wound (grey). […] NADH/NAD^+ ratio is lower in perilesional area of DCA-treated mice (grey line vs grey line of D, comparison between first 10 values of each condition, t-test ****, P<0.0001). n=3 mice.
FIG. 8. Effect of the mitochondrial respiratory chain in the measurement of NADH/NAD^+ ratio as expression of glycolysis in wound. A, NADH/NAD^+ ratio percentage as a function of distance from wound. […] NADH/NAD^+ ratio is lower in perilesional area of Antimycin A-treated mice (bottom graph vs grey line for untreated condition, comparison between first 10 values of each condition, t-test, P<0.0001). […] B, map of a gradient of NADH/NAD+ ratio (grey) in wound in untreated (n=4) or mice treated with Rotenone (n=3) and Antimycin A (n=2). Wound margin is highlighted with a dashed line. All scale bars 20 μm.
On day 1 after wounding, FLIM images were acquired with 2PM and stitched to produce lifetime XYZ mosaics (600-1000 μm wide and 200 μm deep) (FIG. 2a). Common FLIM imaging has slow acquisition times, which are required to collect enough photons to reconstruct a time decay curve. This was compensated by the use of a time correlated single-photon counting (TCSPC) 16-channel parallel detector, with an average counting speed of 80 MHz which allowed faster 3D scanning of the mosaic over lesion area^31. The ratio of free to protein-bound NADH has been known to be associated with the ratio of NAD^+ to NADH in small intestine epithelial cells^32 and breast cancer cells^33. Protein-bound NADH has a complex multi-exponential lifetime decay that has been related to its binding to different enzymes, such as malate dehydrogenase and lactate dehydrogenase^34. Standard approaches revolved on a characterization by fitting with a two-exponential curve, corresponding to a short or long lifetime range. This approximation is however misleading because free and protein-bound NADH have common exponential components and the NADH binding sites with different enzymes cannot be considered^32, 35. In fact, in our case this approach was ineffective to discriminate between untreated and DCA-treated mice (FIG. 7). […] Instead, phasor analysis^32, 36 was used. In accordance with a previous report^37, we designed an analysis that first divides the phasor cloud into five regions (FIG. 2b) corresponding to a gradient of prevailing anaerobic glycolysis in regions of lower lifetimes towards a region where more oxidative phosphorylation occurs. Pixels attributed to each region were then associated to discrete values of decreasing intensity, and therefore quantification of pixel intensity on the resulting image was proportional to the relative increase in anaerobic glycolysis. By linearizing images, we obtained a spatial distribution of anaerobic glycolysis from wound profile (FIG. 2c). At lesion margin, gradient of NADH/NAD^+ ratio corresponded to 29.1±0.4% and decreased until to 2.6±0.1% distance (range of 200-500 μm) from the wound. The decrease was evaluated with a linear regression fitting as the simplest fitting model for testing the overall deviation from zero slope curve (linear regression fitting with a slope of −0.050±0.0016 μm^−1; black line with 95% CL bands; deviation from zero slope test, P<0.0001) (FIG. 2d). An increased anaerobic glycolysis around wound margins was also evident in XZ maximum intensity projection images of the maps (FIG. 2e). […]

excisional skin wound = assay: Full-thickness excisional skin wound healing model, kinetic analysis of wound area; assay type: in vivo, mice (C57BL/6J); details: for DCA-mediated delayed wound closure (measurement of wound area) compared to control mice: single administration 300 mg/Kg i.p. 1 h prior skin wounding
Experimental: FIG. 1: In vivo relevance of the cell metabolic adaptation in skin repair. The excisional skin wound healing model was used. Left, kinetic analysis of skin wound areas was performed. Values represent mean±SD. Right, representative macroscopic images of untreated and DCA treated mice are shown at the indicated days after wounding. Bar, 5 mm. *P<0.05, **P<0.01; Student's t-test. Untreated, n=8; DCA, n=9. One experiment shown out of two performed with similar number of animals.
In order to determine the relevance of wound acidification in healing outcome in vivo, the pyruvate dehydrogenase kinase (Pdk) inhibitor dichloroacetate (DCA) was used in a model of full-thickness excisional skin wounding to promote glucose oxidation over anaerobic glycolysis, thus interfering with local acidosis.
Excisional model of skin injury. A full-thickness excisional skin injury model was performed as previously described^7. Mice were anesthetized with 10 μL/g of weight of Ketamine (final concentration 10 mg/mL) and Xylazine (final concentration 1 mg/mL) in saline buffer. As described^7, a full-thickness wound (from skin to underlying panniculus carnosus) was generated with disposable biopsy punch (8-mm diameter). Gentamicin was immediately applied to limit gross bacterial infections, not evident from histological examination carried out at different time points of the experiment. Mice were optionally treated with a solution of sodium dichloroacetate (DCA; Sigma-Aldrich Corp.), which was injected i.p. in 10-12 weeks-old C57BL/6J with a dosage of 300 mg/Kg 1 h before skin wounding. PBS or saline were used in control mice. As previously described^7, the skin wounds of each mouse were digitally photographed and measured during wound healing by tracing them on a transparency, calculated with the ImageJ-Fiji software, and the variations in time expressed as a percentage of the initial wound area.

O=C([O-])C(Cl)Cl.[Na+] [DCA, sodium dichloroacetate]
anaerobic glycolysis (NADH/NAD+ ratio) at perilesional area (NADH/NAD+ ratio; DCA 300 mg/Kg i.p., 1 h, mean of the first 10 values, untreated 29.1±0.4%, P<0.0001): 8.0±0.2% | gradient steepness, slope of linear regression of NADH/NAD+ ratio vs distance from wound (NADH/NAD+ ratio; DCA 300 mg/Kg i.p., 1 h, untreated −0.050±0.0016, P<0.0001): −0.035±0.0023 μm^−1 | NADH lifetime decays in perilesional regions fitted with a two-exponential decay function, treated vs untreated (NADH/NAD+ ratio; Student t-test, P>0.05): could not show significant differences | NADH/NAD+ ratio in perilesional area vs untreated condition (in words) (NADH/NAD+ ratio): lower | line slope of linear regression of NADH/NAD+ ratio vs untreated (in words) (NADH/NAD+ ratio; P<0.0001): reduction in line slope | DCA-mediated delayed wound closure (measurement of wound area) compared to control mice (excisional skin wound; day 1, P=0.005): −28.3% | DCA-mediated delayed wound closure (measurement of wound area) compared to control mice (excisional skin wound; day 2, P=0.004): −27.1% | DCA-mediated delayed wound closure (measurement of wound area) compared to control mice (excisional skin wound; day 3, P=0.05): −22.5% | DCA-mediated delayed wound closure (measurement of wound area) compared to control mice (excisional skin wound; day 4, P=0.02): −24.5% | DCA-mediated delayed wound closure (measurement of wound area) compared to control mice (excisional skin wound; day 5, P=0.002): −30.5% | DCA-mediated delayed wound closure (measurement of wound area) compared to control mice (excisional skin wound; day 6, P=0.01): −20.4% | DCA-mediated delayed wound closure (measurement of wound area) compared to control mice (excisional skin wound; day 7, P=0.03): −17.4% | wound closure curve compared to mice treated with vehicle alone (excisional skin wound; single administration 300 mg/Kg 1 h prior skin wounding, n=9 vs n=8): significantly delayed curve

C=C(C)[C@H]1Cc2c(ccc3c2O[C@@H]2COc4cc(OC)c(OC)cc4[C@@H]2C3=O)O1 [Rotenone]
glycolysis in regions distant from the wound (NADH/NAD+ ratio; Rotenone 20 μM local): increased glycolysis in regions distant from the wound | slope of gradient of NADH/NAD+ ratio vs distance from wound (NADH/NAD+ ratio; Rotenone 20 μM local (i.d.) 1 h before imaging, P<0.0001): −0.113±0.002 μm^−1 | fraction of anaerobic glycolysis at wound margin (NADH/NAD+ ratio; Rotenone 20 μM local (i.d.), untreated 20.28±0.41%, P>0.05): 20.08±0.21% | NADH/NAD+ ratio in perilesional area vs untreated condition (in words) (NADH/NAD+ ratio): no significant decrease in value | line slope of linear regression of NADH/NAD+ ratio vs untreated (in words) (NADH/NAD+ ratio; P<0.0001): significant reduction in line slope

Antimycin A
slope of gradient of NADH/NAD+ ratio vs distance from wound (NADH/NAD+ ratio; Antimycin A 5 μM i.d. 1 h before imaging, P<0.0001): −0.046±0.08 μm^−1 | glycolysis at wound margin (NADH/NAD+ ratio) (NADH/NAD+ ratio; Antimycin A 5 μM i.d., untreated 20.28±0.41%, P<0.0001): 8.37±0.49% | NADH/NAD+ ratio in perilesional area vs untreated condition (in words) (NADH/NAD+ ratio): lower | line slope of linear regression of NADH/NAD+ ratio vs untreated (in words) (NADH/NAD+ ratio; P<0.0001): reduction in line slope
